Source: publication PMC11729425 (ACS Pharmacology & Translational Science, 2024)

Columns and labels:
Assay type in all cases: in vivo, C57BL/6JRj mice
Aged C57BL/6J mice [1] = assay: Hanging test; conditions: 1 mg/kg in the food, week 7, normalized to BW
Experimental: Mice were allowed to acclimate to the testing room for 30 min before the experiment. Each mouse was positioned on a wire grid, gripping it with all four limbs. The grid was then inverted, causing the mouse to hang, and the duration it could maintain this position was recorded. The maximum trial length was set at 2 min and 30 s (150 s). The latency to fall was measured five times for each mouse, with 10 min intervals between trials.

[2] = Chronic (20 weeks) oral administration in aged mice: body weight, food intake, organ mass, plasma citrulline; conditions: 1 mg/kg in the food
Experimental: Figure 2 Chronic oral administration of ALT-007 enhances physical fitness in aged mice. (A) Schematic representation of the study time-line. Compounds were mixed in the food, ALT-007 at 1 mg/kg and DMSO at equivalent volume. At week 0: young mice were 2 months old, and the old mice were 18 months old. (B) Body weight curve over the course of the study (20 weeks). (C) Food intake curve throughout the study. (D–G) Organ mass at sacrifice (week 20), normalized to body weight. (H) Oral glucose tolerance test (oGTT) performed at week 17. (I) Best performance during hanging time normalized to BW at week 7. (J) Best performance during grip strength on the 4 limbs normalized to BW at week 8. (K) Rotarod’s best latency time at week 9. (L) VO2Max performed at week 11. (M) Uphill maximum running time performed at week 13. N = 9 per group. (N) Difference of CK level after—before 90 min downhill running performed at week 15. N = 6 in young, N = 8 in DMSO and N = 7 in ALT-007-treated groups. (O–Q) Measurement of kCAL/h at night (O) and at day (P) and movement recording in x, y, z (Q) during 24 h in CLAMS at week 19. N = 12 per group unless specified otherwise. Quantitative data are expressed as median with IQR. *P < 0.05, **P < 0.01, ***P < 0.001, ****P < 0.0001. ANOVA test was used for multiple comparison, and the Mann–Whitney U test when comparing 2 groups. All tests were 2 sided.
Young (2 month-old) and aged (18 month-old) male C57BL/6JRj mice were purchased from Janvier Laboratories. Housing conditions involved maintaining two to five animals per cage under a 12 h light/dark cycle, with continuous access to food and water. Animals were fed a standard chow diet (Safe 150) with the following composition: 56.9% nitrogen-free extract, of which 41.0% was starch and 3.4% was sugars, 18.0% crude protein, 4.8% crude fat, 4.2% crude ash, 4.1% crude fiber and 12.0% moisture. Young (2 month-old) and old (18 month-old) mice were monitored for 20 weeks. Mice were administered either DMSO as a control or ALT-007. ALT-007 was dissolved in DMSO or DMSO alone were mixed in the food (1 mg/kg for ALT-007 or equivalent volume of DMSO for controls). Body weight and food intake measurements were recorded weekly until sacrifice.
Prior to sacrifice, mice were fasted for 4 h in the morning. Animals were sacrificed between 1:30 and 4 p.m. Mice were anesthetized with isoflurane, followed by a complete blood draw from the vena cava and perfusion with cold phosphate-buffered saline. Immediately thereafter, various tissues including liver, kidney, spleen, heart, brain, gastrocnemius muscle and tibialis anterior muscle were harvested, weighted and promptly flash-frozen in liquid nitrogen.
1.1. Supplementary Figure 1
(A) Citrulline levels in the plasma of mice treated with ALT-007 at 1 mg/kg or vehicle […]

Aged C57BL/6J mice [3] = assay: VO2max test; conditions: 1 mg/kg in the food, week 11
Experimental: VO2max in mice was measured with a calorimetric treadmill (Columbus Instruments) with an incremental speed protocol as previously described.[33]

Aged C57BL/6J mice [4] = assay: Oral glucose tolerance test (oGTT) in aged mice; conditions: 1 mg/kg in the food, week 17
Experimental: For OGTT, mice underwent an overnight fast, and on the morning of the experiment, they were administered a gavage consisting of a 20% glucose solution in water (10 mL [2 g]/kg body weight). Blood glucose levels were monitored from the tail vein using a glucometer prior to the gavage and at 15, 30, 45, 60, 90, 120, 150, and 180 min thereafter. Additionally, blood samples were collected at 0 min (pregavage), 15 and 30 min to assess fasting insulin levels and glucose-stimulated insulin secretion. oGTT was performed 17 weeks post experiment onset as indicated in Figure 2A.

## COc1cc(C(=O)N2CC[C@H](NC(=O)c3ccccc3OC(F)(F)F)c3c2cnn3C(C)C)cnc1OC [ALT-007]
Aged C57BL/6J mice [1]
  maximum hanging time: increased compared to aged control mice
[2]; 20 weeks
  body weight: stable body weight
  food intake: absence of changes in food intake
[2]; 20 weeks, vs untreated mice
  gastrointestinal (GI) toxicity by plasma citrulline levels: no gastrointestinal (GI) toxicity
[2]; at sacrifice week 20, normalized to body weight
  tissue weights relative to control: absence of changes
Aged C57BL/6J mice [3]
  VO2max: significantly higher
Aged C57BL/6J mice [4]
  glucose tolerance test: no difference
